Measurements taken from PubChem BioAssay AID220 (DTP/NCI, 2004).
“And” between values parts separate entries of the source, which are not always exact repeats. Identical values can stand only once. Inconclusive results are not listed.

System: CD8F1 mice, subcutaneous mammary adenocarcinoma, T/C%
Experiment: NCI In Vivo Anticancer Drug Screen. Data for tumor model Mammary Adenocarcinoma CD8F1 (subcutaneous) in CD8F1
Conditions: higher = larger tumour
Method in brief: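 Tumor-bearing mice, transplantable model; readout survival or tumor size; value = treated (T) / vehicle control (C).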

[1] = endpoint: median tumor weight (est.), dose: 25.0 mg/kg/injection, schedule: Q07DX005 (ip), vehicle: water
[2] = endpoint: median tumor weight (est.), dose: 50.0 mg/kg/injection, schedule: Q07DX005 (ip), vehicle: water
[3] = endpoint: median tumor weight (est.), dose: 200.0 mg/kg/injection, schedule: Q07DX005 (ip), vehicle: water
[4] = endpoint: median tumor weight (est.), dose: 12.5 mg/kg/injection, schedule: Q07DX005 (ip), vehicle: Klucel (hydroxypropylcellulose) (HPC)
[5] = endpoint: median tumor weight (est.), dose: 25.0 mg/kg/injection, schedule: Q07DX005 (ip), vehicle: Klucel (hydroxypropylcellulose) (HPC)

For `COc1cccc2c1C(=O)c1c(O)c3c(c(O)c1C2=O)C[C@@](O)(C(=O)CO)C[C@@H]3OC1CC(N)C(O)C(C)O1` (stereo not given in full), the T/C (endpoint: mean tumor weight, dose: 0.25 mg/kg/injection, schedule: Q01DX009 (ip), vehicle: saline) was 38 % of control, the T/C (endpoint: mean tumor weight, dose: 0.5 mg/kg/injection, schedule: Q01DX009 (ip), vehicle: saline) was 17 % of control and the T/C (endpoint: mean tumor weight, dose: 0.5 mg/kg/injection, schedule: Q07DX005 (ip), vehicle: saline) was 85 % of control. The T/C (endpoint: mean tumor weight, dose: 0.5 mg/kg/injection, schedule: Q07DX006 (ip), vehicle: saline) was 45 % of control and 55 % of control and 66 % of control, the T/C (endpoint: mean tumor weight, dose: 0.75 mg/kg/injection, schedule: Q07DX006 (ip), vehicle: saline) was 46 % of control and the T/C (endpoint: mean tumor weight, dose: 1.0 mg/kg/injection, schedule: Q01DX009 (ip), vehicle: saline) was 2 % of control. The T/C (endpoint: mean tumor weight, dose: 1.0 mg/kg/injection, schedule: Q07DX005 (ip), vehicle: saline) was 89 % of control, the T/C (endpoint: mean tumor weight, dose: 1.5 mg/kg/injection, schedule: Q07DX006 (ip), vehicle: saline) was 42 % of control and the T/C (endpoint: mean tumor weight, dose: 2.0 mg/kg/injection, schedule: Q07DX005 (ip), vehicle: saline) was 40 % of control. For the same compound, the T/C (endpoint: mean tumor weight, dose: 2.5 mg/kg/injection, schedule: Q07DX006 (ip), vehicle: saline) was 6 % of control, the T/C (endpoint: mean tumor weight, dose: 3.0 mg/kg/injection, schedule: Q07DX006 (ip), vehicle: saline) was 3 % of control and the T/C (endpoint: mean tumor weight, dose: 4.0 mg/kg/injection, schedule: Q07DX006 (ip), vehicle: saline) was 1 % of control. The T/C (endpoint: median tumor weight (est.), dose: 0.25 mg/kg/injection, schedule: Q07DX005 (ip), vehicle: saline) was 208 % of control and 84 % of control, the T/C (endpoint: median tumor weight (est.), dose: 0.37 mg/kg/injection, schedule: Q07DX005 (ip), vehicle: water) was 84 % of control and the T/C (endpoint: median tumor weight (est.), dose: 0.75 mg/kg/injection, schedule: Q07DX005 (ip), vehicle: saline) was 62 % of control. The T/C (endpoint: median tumor weight (est.), dose: 0.75 mg/kg/injection, schedule: Q07DX005 (ip), vehicle: water) was 47 % of control, the T/C (endpoint: median tumor weight (est.), dose: 1.25 mg/kg/injection, schedule: Q07DX005 (ip), vehicle: saline) was 40 % of control and the T/C (endpoint: median tumor weight (est.), dose: 1.5 mg/kg/injection, schedule: Q07DX005 (ip), vehicle: saline) was 85 % of control. The T/C (endpoint: median tumor weight (est.), dose: 1.5 mg/kg/injection, schedule: Q07DX005 (ip), vehicle: water) was 81 % of control, the T/C (endpoint: median tumor weight (est.), dose: 1.8 mg/kg/injection, schedule: Q07DX005 (ip), vehicle: saline) was 77 % of control and the T/C (endpoint: median tumor weight (est.), dose: 2.5 mg/kg/injection, schedule: Q07DX005 (ip), vehicle: saline) was 14 % of control. The T/C (endpoint: median tumor weight (est.), dose: 2.7 mg/kg/injection, schedule: Q07DX005 (ip), vehicle: saline) was 51 % of control, the T/C (endpoint: median tumor weight (est.), dose: 3.0 mg/kg/injection, schedule: Q07DX005 (ip), vehicle: saline) was 29 % of control and the T/C (endpoint: median tumor weight (est.), dose: 4.4 mg/kg/injection, schedule: Q01DX001 (ip), vehicle: saline) was 37 % of control. For the same compound, the T/C (endpoint: median tumor weight (est.), dose: 4.4 mg/kg/injection, schedule: Q07DX004 (ip), vehicle: saline) was 11 % of control, the T/C (endpoint: median tumor weight (est.), dose: 6.0 mg/kg/injection, schedule: Q07DX005 (ip), vehicle: saline) was 30 % of control and the T/C (endpoint: median tumor weight (est.), dose: 6.7 mg/kg/injection, schedule: Q01DX001 (ip), vehicle: saline) was 28 % of control. For the same compound, the T/C (endpoint: median tumor weight (est.), dose: 6.7 mg/kg/injection, schedule: Q07DX004 (ip), vehicle: saline) was 5 % of control, the T/C (endpoint: median tumor weight (est.), dose: 8.0 mg/kg/injection, schedule: Q07DX005 (ip), vehicle: water) was 1 % of control and the T/C (endpoint: median tumor weight (est.), dose: 10.0 mg/kg/injection, schedule: Q01DX001 (ip), vehicle: saline) was 15 % of control. The T/C (endpoint: median tumor weight (est.), dose: 15.0 mg/kg/injection, schedule: Q01DX001 (ip), vehicle: saline) was 6 % of control, the T/C (endpoint: median tumor weight change, dose: 1.25 mg/kg/injection, schedule: Q01DX001 (ip), vehicle: water) was 115 % of control and the T/C (endpoint: median tumor weight change, dose: 2.5 mg/kg/injection, schedule: Q01DX001 (ip), vehicle: water) was 81 % of control. The T/C (endpoint: median tumor weight change, dose: 3.75 mg/kg/injection, schedule: Q01DX001 (ip), vehicle: saline) was 96 % of control, the T/C (endpoint: median tumor weight change, dose: 4.4 mg/kg/injection, schedule: Q01DX001 (ip), vehicle: water) was 27 % of control and the T/C (endpoint: median tumor weight change, dose: 5.0 mg/kg/injection, schedule: Q01DX001 (ip), vehicle: water) was 18 % of control. For the same compound, the T/C (endpoint: median tumor weight change, dose: 6.7 mg/kg/injection, schedule: Q01DX001 (ip), vehicle: water) was -5 % of control, the T/C (endpoint: median tumor weight change, dose: 7.5 mg/kg/injection, schedule: Q01DX001 (ip), vehicle: saline) was 82 % of control and the T/C (endpoint: median tumor weight change, dose: 15.0 mg/kg/injection, schedule: Q01DX001 (ip), vehicle: water) was -49 % of control.

In the case of `CONc1ccn(C2OC(CO)C(O)C2O)c(=O)n1` (stereo not given), the T/C (endpoint: median tumor weight change, dose: 125.0 mg/kg/injection, schedule: Q01DX001 (ip), vehicle: saline) was 87 % of control and the T/C (endpoint: median tumor weight change, dose: 250.0 mg/kg/injection, schedule: Q01DX001 (ip), vehicle: saline) was 103 % of control.

For `NC(=O)Oc1cccc(OC(N)=O)c1`, the T/C (endpoint: mean tumor weight, dose: 50.0 mg/kg/injection, schedule: Q07DX006 (ip), vehicle: water) was 161 % of control, the T/C (endpoint: mean tumor weight, dose: 100.0 mg/kg/injection, schedule: Q07DX006 (ip), vehicle: water) was 56 % of control and the T/C (endpoint: mean tumor weight, dose: 200.0 mg/kg/injection, schedule: Q07DX006 (ip), vehicle: water) was 73 % of control. The T/C (endpoint: mean tumor weight, dose: 400.0 mg/kg/injection, schedule: Q07DX006 (ip), vehicle: water) was 93 % of control, the T/C [1] was 99 % of control and the T/C [2] was 105 % of control. The T/C [3] was 106 % of control and the T/C (endpoint: median tumor weight (est.), dose: 400.0 mg/kg/injection, schedule: Q07DX005 (ip), vehicle: water) was 63 % of control.

`N#CC(C#N)=C/C=C/c1cccc([N+](=O)[O-])c1` was tested, and the T/C (endpoint: median tumor weight (est.), dose: 3.12 mg/kg/injection, schedule: Q07DX005 (ip), vehicle: Klucel (hydroxypropylcellulose) (HPC)) was 122 % of control, the T/C (endpoint: median tumor weight (est.), dose: 6.25 mg/kg/injection, schedule: Q07DX005 (ip), vehicle: Klucel (hydroxypropylcellulose) (HPC)) was 239 % of control and the T/C [4] was 169 % of control. The T/C [5] was 152 % of control.

In the case of `O=C1C=CN(C2OC(CO)C(O)C2O)C(=O)C1` (stereo not given), the T/C (endpoint: median tumor weight (est.), dose: 12.5 mg/kg/injection, schedule: Q07DX005 (ip), vehicle: saline) was 97 % of control, the T/C (endpoint: median tumor weight (est.), dose: 25.0 mg/kg/injection, schedule: Q07DX005 (ip), vehicle: saline) was 99 % of control and the T/C (endpoint: median tumor weight (est.), dose: 50.0 mg/kg/injection, schedule: Q07DX005 (ip), vehicle: saline) was 101 % of control. The T/C (endpoint: median tumor weight (est.), dose: 100.0 mg/kg/injection, schedule: Q07DX005 (ip), vehicle: saline) was 120 % of control and the T/C (endpoint: median tumor weight (est.), dose: 200.0 mg/kg/injection, schedule: Q07DX005 (ip), vehicle: saline) was 78 % of control.

In the case of `Cc1ccc2c(ccc(CC(=S)[S-])[n+]2C)c1`, the T/C [4] was 72 % of control and 97 % of control, the T/C [5] was 90 % of control and the T/C (endpoint: median tumor weight (est.), dose: 50.0 mg/kg/injection, schedule: Q07DX005 (ip), vehicle: Klucel (hydroxypropylcellulose) (HPC)) was 102 % of control and 121 % of control. The T/C (endpoint: median tumor weight (est.), dose: 100.0 mg/kg/injection, schedule: Q07DX005 (ip), vehicle: Klucel (hydroxypropylcellulose) (HPC)) was 46 % of control and 71 % of control and the T/C (endpoint: median tumor weight (est.), dose: 200.0 mg/kg/injection, schedule: Q07DX005 (ip), vehicle: Klucel (hydroxypropylcellulose) (HPC)) was 32 % of control.

For `Nc1nc2c(ncn2C2OC(CO)C(O)C2O)c(=O)[nH]1.Nc1nc2c(ncn2C2OC(CO)C(O)C2O)c(=O)[nH]1.[NH2-].[NH2-].[Pt+2]` (stereo not given), the T/C (endpoint: median tumor weight (est.), dose: 12.5 mg/kg/injection, schedule: Q07DX005 (ip), vehicle: water) was 52 % of control, the T/C [1] was 61 % of control and the T/C [2] was 34 % of control. The T/C (endpoint: median tumor weight (est.), dose: 100.0 mg/kg/injection, schedule: Q07DX005 (ip), vehicle: water) was 51 % of control and the T/C [3] was 40 % of control.

`O=C1N(Cl)C(=O)C(c2ccc(Cl)cc2)(c2ccc(Cl)cc2)N1Cl` was tested, and the T/C (endpoint: median tumor weight (est.), dose: 12.5 mg/kg/injection, schedule: Q07DX005 (ip), vehicle: saline with Tween-80) was 98 % of control, the T/C (endpoint: median tumor weight (est.), dose: 25.0 mg/kg/injection, schedule: Q07DX005 (ip), vehicle: saline with Tween-80) was 119 % of control and the T/C (endpoint: median tumor weight (est.), dose: 50.0 mg/kg/injection, schedule: Q07DX005 (ip), vehicle: saline with Tween-80) was 91 % of control. The T/C (endpoint: median tumor weight (est.), dose: 100.0 mg/kg/injection, schedule: Q07DX005 (ip), vehicle: saline with Tween-80) was 104 % of control, the T/C (endpoint: median tumor weight (est.), dose: 200.0 mg/kg/injection, schedule: Q07DX005 (ip), vehicle: saline with Tween-80) was 113 % of control and the T/C (endpoint: median tumor weight (est.), dose: 400.0 mg/kg/injection, schedule: Q07DX005 (ip), vehicle: saline with Tween-80) was 43 % of control. For the same compound, the T/C (endpoint: median tumor weight change, dose: 12.5 mg/kg/injection, schedule: Q01DX001 (ip), vehicle: saline with Tween-80) was 98 % of control, the T/C (endpoint: median tumor weight change, dose: 25.0 mg/kg/injection, schedule: Q01DX001 (ip), vehicle: saline with Tween-80) was 68 % of control and the T/C (endpoint: median tumor weight change, dose: 50.0 mg/kg/injection, schedule: Q01DX001 (ip), vehicle: saline with Tween-80) was 71 % of control. For the same compound, the T/C (endpoint: median tumor weight change, dose: 100.0 mg/kg/injection, schedule: Q01DX001 (ip), vehicle: saline with Tween-80) was 45 % of control and 48 % of control, the T/C (endpoint: median tumor weight change, dose: 200.0 mg/kg/injection, schedule: Q01DX001 (ip), vehicle: saline with Tween-80) was 44 % of control and 53 % of control and the T/C (endpoint: median tumor weight change, dose: 400.0 mg/kg/injection, schedule: Q01DX001 (ip), vehicle: saline with Tween-80) was 24 % of control.
